Results from the supplement of paper PMC8882468.

Each compound was assayed on HCI-010 (organoid from a breast cancer xenograft) (assay: CTG-3D luminescence at 96 h relative to day-0 seeding control (ratio to day 0); higher = more growth / less cytotoxicity; PDxO 3D drug screen, 96 h, CTG-3D normalised to day-0 seeding control.). Settings: 10 µM; days in culture: 65.

In order of falling “CTG-3D luminescence at 96 h” value:
1. C[C@H](NC(=O)CCC(F)(F)F)C(=O)N[C@@H]1C(=O)N(CCO)c2ncccc2-c2ccccc21 [crenigacestat]  1.6
2. CS(=O)(=O)c1ccc(C(=O)Nc2ccc(Cl)c(-c3ccccn3)c2)c(Cl)c1 [vismodegib]  1.5
3. NC1(C(=O)N[C@@H](CCO)c2ccc(Cl)cc2)CCN(c2nc[nH]c3nccc2-3)CC1 [capivasertib]  1.18
4. O=C(c1ccc(F)c(F)c1Nc1ccc(I)cc1F)N1CC(O)([C@@H]2CCCCN2)C1 [cobimetinib]  1.18
5. NC(=O)c1cccc2cn(-c3ccc([C@@H]4CCCNC4)cc3)nc12 [niraparib]  0.382
6. C[C@@H]1COCCN1c1cc(C2([S@](C)(=N)=O)CC2)nc(-c2cc[nH]c3nccc2-3)n1 [ceralasertib]  0.3
7. CC(C)n1nc(-c2ccc3oc(N)nc3c2)c2c(N)ncnc21 [sapanisertib]  0.0873
8. CCN1CCN(Cc2ccc(Nc3ncc(F)c(-c4cc(F)c5nc(C)n(C(C)C)c5c4)n3)nc2)CC1 [abemaciclib]  0.0257
9. Cc1cc(Nc2ncc(Cl)c(Nc3ccccc3S(=O)(=O)C(C)C)n2)c(OC(C)C)cc1C1CCNCC1 [ceritinib]  0.00782

Same assay, conditions: 10 µM; days in culture: 103

In order of falling “CTG-3D luminescence at 96 h” value:
1. C[C@H](NC(=O)CCC(F)(F)F)C(=O)N[C@@H]1C(=O)N(CCO)c2ncccc2-c2ccccc21 [crenigacestat]  2.87
2. CS(=O)(=O)c1ccc(C(=O)Nc2ccc(Cl)c(-c3ccccn3)c2)c(Cl)c1 [vismodegib]  2.62
3. CCN1CCN(Cc2ccc(Nc3ncc(F)c(-c4cc(F)c5nc(C)n(C(C)C)c5c4)n3)nc2)CC1 [abemaciclib]  2.6
4. NC1(C(=O)N[C@@H](CCO)c2ccc(Cl)cc2)CCN(c2nc[nH]c3nccc2-3)CC1 [capivasertib]  2.11
5. O=C(c1ccc(F)c(F)c1Nc1ccc(I)cc1F)N1CC(O)([C@@H]2CCCCN2)C1 [cobimetinib]  1.92
6. CC(C)n1nc(-c2ccc3oc(N)nc3c2)c2c(N)ncnc21 [sapanisertib]  0.555
7. C[C@@H]1COCCN1c1cc(C2([S@](C)(=N)=O)CC2)nc(-c2cc[nH]c3nccc2-3)n1 [ceralasertib]  0.548
8. NC(=O)c1cccc2cn(-c3ccc([C@@H]4CCCNC4)cc3)nc12 [niraparib]  0.397
9. Cc1cc(Nc2ncc(Cl)c(Nc3ccccc3S(=O)(=O)C(C)C)n2)c(OC(C)C)cc1C1CCNCC1 [ceritinib]  0.0149

Same assay, conditions: 100 µM; days in culture: 52

In order of rising “CTG-3D luminescence at 96 h” value:
1. Cc1cc(Nc2ncc(Cl)c(Nc3ccccc3S(=O)(=O)C(C)C)n2)c(OC(C)C)cc1C1CCNCC1 [ceritinib]  -0.0342
2. NC(=O)c1cccc2cn(-c3ccc([C@@H]4CCCNC4)cc3)nc12 [niraparib]  0.006
3. O=C(c1ccc(F)c(F)c1Nc1ccc(I)cc1F)N1CC(O)([C@@H]2CCCCN2)C1 [cobimetinib]  0.00712
4. CC(C)n1nc(-c2ccc3oc(N)nc3c2)c2c(N)ncnc21 [sapanisertib]  0.011
5. CCN1CCN(Cc2ccc(Nc3ncc(F)c(-c4cc(F)c5nc(C)n(C(C)C)c5c4)n3)nc2)CC1 [abemaciclib]  0.0133
6. C[C@@H]1COCCN1c1cc(C2([S@](C)(=N)=O)CC2)nc(-c2cc[nH]c3nccc2-3)n1 [ceralasertib]  0.238
7. NC1(C(=O)N[C@@H](CCO)c2ccc(Cl)cc2)CCN(c2nc[nH]c3nccc2-3)CC1 [capivasertib]  0.545
8. CS(=O)(=O)c1ccc(C(=O)Nc2ccc(Cl)c(-c3ccccn3)c2)c(Cl)c1 [vismodegib]  0.825
9. C[C@H](NC(=O)CCC(F)(F)F)C(=O)N[C@@H]1C(=O)N(CCO)c2ncccc2-c2ccccc21 [crenigacestat]  2.04

Same assay, conditions: 100 µM; days in culture: 65

In order of rising “CTG-3D luminescence at 96 h” value:
1. Cc1cc(Nc2ncc(Cl)c(Nc3ccccc3S(=O)(=O)C(C)C)n2)c(OC(C)C)cc1C1CCNCC1 [ceritinib]  -0.00536
2. NC(=O)c1cccc2cn(-c3ccc([C@@H]4CCCNC4)cc3)nc12 [niraparib]  0.000688
3. O=C(c1ccc(F)c(F)c1Nc1ccc(I)cc1F)N1CC(O)([C@@H]2CCCCN2)C1 [cobimetinib]  0.00337
4. CC(C)n1nc(-c2ccc3oc(N)nc3c2)c2c(N)ncnc21 [sapanisertib]  0.00591
5. CCN1CCN(Cc2ccc(Nc3ncc(F)c(-c4cc(F)c5nc(C)n(C(C)C)c5c4)n3)nc2)CC1 [abemaciclib]  0.00729
6. C[C@@H]1COCCN1c1cc(C2([S@](C)(=N)=O)CC2)nc(-c2cc[nH]c3nccc2-3)n1 [ceralasertib]  0.152
7. NC1(C(=O)N[C@@H](CCO)c2ccc(Cl)cc2)CCN(c2nc[nH]c3nccc2-3)CC1 [capivasertib]  0.287
8. CS(=O)(=O)c1ccc(C(=O)Nc2ccc(Cl)c(-c3ccccn3)c2)c(Cl)c1 [vismodegib]  0.574
9. C[C@H](NC(=O)CCC(F)(F)F)C(=O)N[C@@H]1C(=O)N(CCO)c2ncccc2-c2ccccc21 [crenigacestat]  1.45

Same assay, conditions: 100 µM; days in culture: 103

In order of falling “CTG-3D luminescence at 96 h” value:
1. C[C@H](NC(=O)CCC(F)(F)F)C(=O)N[C@@H]1C(=O)N(CCO)c2ncccc2-c2ccccc21 [crenigacestat]  2.58
2. CS(=O)(=O)c1ccc(C(=O)Nc2ccc(Cl)c(-c3ccccn3)c2)c(Cl)c1 [vismodegib]  1.52
3. NC1(C(=O)N[C@@H](CCO)c2ccc(Cl)cc2)CCN(c2nc[nH]c3nccc2-3)CC1 [capivasertib]  0.959
4. C[C@@H]1COCCN1c1cc(C2([S@](C)(=N)=O)CC2)nc(-c2cc[nH]c3nccc2-3)n1 [ceralasertib]  0.325
5. CCN1CCN(Cc2ccc(Nc3ncc(F)c(-c4cc(F)c5nc(C)n(C(C)C)c5c4)n3)nc2)CC1 [abemaciclib]  0.0301
6. NC(=O)c1cccc2cn(-c3ccc([C@@H]4CCCNC4)cc3)nc12 [niraparib]  0.00829
7. O=C(c1ccc(F)c(F)c1Nc1ccc(I)cc1F)N1CC(O)([C@@H]2CCCCN2)C1 [cobimetinib]  0.00125
8. CC(C)n1nc(-c2ccc3oc(N)nc3c2)c2c(N)ncnc21 [sapanisertib]  -0.00132
9. Cc1cc(Nc2ncc(Cl)c(Nc3ccccc3S(=O)(=O)C(C)C)n2)c(OC(C)C)cc1C1CCNCC1 [ceritinib]  -0.0118

Same assay, conditions: 625 fM; days in culture: 52

In order of rising “CTG-3D luminescence at 96 h” value:
1. CS(=O)(=O)c1ccc(C(=O)Nc2ccc(Cl)c(-c3ccccn3)c2)c(Cl)c1 [vismodegib]  1.78
2. C[C@H](NC(=O)CCC(F)(F)F)C(=O)N[C@@H]1C(=O)N(CCO)c2ncccc2-c2ccccc21 [crenigacestat]  2
3. NC(=O)c1cccc2cn(-c3ccc([C@@H]4CCCNC4)cc3)nc12 [niraparib]  2.06
4. CCN1CCN(Cc2ccc(Nc3ncc(F)c(-c4cc(F)c5nc(C)n(C(C)C)c5c4)n3)nc2)CC1 [abemaciclib]  2.09
5. NC1(C(=O)N[C@@H](CCO)c2ccc(Cl)cc2)CCN(c2nc[nH]c3nccc2-3)CC1 [capivasertib]  2.15
6. C[C@@H]1COCCN1c1cc(C2([S@](C)(=N)=O)CC2)nc(-c2cc[nH]c3nccc2-3)n1 [ceralasertib]  2.24
7. Cc1cc(Nc2ncc(Cl)c(Nc3ccccc3S(=O)(=O)C(C)C)n2)c(OC(C)C)cc1C1CCNCC1 [ceritinib]  2.26
8. CC(C)n1nc(-c2ccc3oc(N)nc3c2)c2c(N)ncnc21 [sapanisertib]  2.4
9. O=C(c1ccc(F)c(F)c1Nc1ccc(I)cc1F)N1CC(O)([C@@H]2CCCCN2)C1 [cobimetinib]  2.57

Same assay, conditions: 625 fM; days in culture: 65

In order of falling “CTG-3D luminescence at 96 h” value:
1. Cc1cc(Nc2ncc(Cl)c(Nc3ccccc3S(=O)(=O)C(C)C)n2)c(OC(C)C)cc1C1CCNCC1 [ceritinib]  1.74
2. CC(C)n1nc(-c2ccc3oc(N)nc3c2)c2c(N)ncnc21 [sapanisertib]  1.71
3. C[C@H](NC(=O)CCC(F)(F)F)C(=O)N[C@@H]1C(=O)N(CCO)c2ncccc2-c2ccccc21 [crenigacestat]  1.67
4. C[C@@H]1COCCN1c1cc(C2([S@](C)(=N)=O)CC2)nc(-c2cc[nH]c3nccc2-3)n1 [ceralasertib]  1.65
5. CCN1CCN(Cc2ccc(Nc3ncc(F)c(-c4cc(F)c5nc(C)n(C(C)C)c5c4)n3)nc2)CC1 [abemaciclib]  1.65
6. NC(=O)c1cccc2cn(-c3ccc([C@@H]4CCCNC4)cc3)nc12 [niraparib]  1.62
7. O=C(c1ccc(F)c(F)c1Nc1ccc(I)cc1F)N1CC(O)([C@@H]2CCCCN2)C1 [cobimetinib]  1.61
8. CS(=O)(=O)c1ccc(C(=O)Nc2ccc(Cl)c(-c3ccccn3)c2)c(Cl)c1 [vismodegib]  1.59
9. NC1(C(=O)N[C@@H](CCO)c2ccc(Cl)cc2)CCN(c2nc[nH]c3nccc2-3)CC1 [capivasertib]  1.58

Same assay, conditions: 625 fM; days in culture: 103

In order of falling “CTG-3D luminescence at 96 h” value:
1. O=C(c1ccc(F)c(F)c1Nc1ccc(I)cc1F)N1CC(O)([C@@H]2CCCCN2)C1 [cobimetinib]  3.51
2. NC1(C(=O)N[C@@H](CCO)c2ccc(Cl)cc2)CCN(c2nc[nH]c3nccc2-3)CC1 [capivasertib]  3.23
3. C[C@@H]1COCCN1c1cc(C2([S@](C)(=N)=O)CC2)nc(-c2cc[nH]c3nccc2-3)n1 [ceralasertib]  3.14
4. Cc1cc(Nc2ncc(Cl)c(Nc3ccccc3S(=O)(=O)C(C)C)n2)c(OC(C)C)cc1C1CCNCC1 [ceritinib]  3.09
5. CC(C)n1nc(-c2ccc3oc(N)nc3c2)c2c(N)ncnc21 [sapanisertib]  3.02
6. CCN1CCN(Cc2ccc(Nc3ncc(F)c(-c4cc(F)c5nc(C)n(C(C)C)c5c4)n3)nc2)CC1 [abemaciclib]  2.98
7. NC(=O)c1cccc2cn(-c3ccc([C@@H]4CCCNC4)cc3)nc12 [niraparib]  2.94
8. C[C@H](NC(=O)CCC(F)(F)F)C(=O)N[C@@H]1C(=O)N(CCO)c2ncccc2-c2ccccc21 [crenigacestat]  2.85
9. CS(=O)(=O)c1ccc(C(=O)Nc2ccc(Cl)c(-c3ccccn3)c2)c(Cl)c1 [vismodegib]  2.8
